# Measured values taken from patent EP2826473A1, “NOVEL USE OF PATCHOULOL” (Chengdu Huasun Group Inc., Ltd., priority 2012, dated 2013).
# Where two headings read alike, the source gives them in different places.
# Assays:
# Streptococcus bovis = assay: in vitro bacteriostatic activity, agar dilution MIC; format: cell-based; settings: Streptococcus equinus; Streptococcus bovis 12-3
# Staphylococcus wameri = assay: as above; format: cell-based
# [1] = tested on: Staphylococcus auricularis; assay: as above; format: cell-based
# [2] = tested on: Staphylococcus aureus MSSA; assay: as above; format: cell-based; settings: Staphylococcus aureus, MSSA, read-out: MIC
# [3] = tested on: Methicillin-resistant Staphylococcus aureus ATCC 43300; assay: in vivo protection of model mice infected with methicillin-resistant Staphylococcus aureus; parameters: species or system KM mice; settings: intraperitoneal injection once a day, within 14 days; for Survival number: 10 animals
# Method: Tested strains' virulence assay: Methicillin-resistant Staphylococcus aureus was cultured in incubator at 37°C to reach exponential phase of growth, and then diluted with normal saline to obtain different gradient concentrations of bacterial liquid. Different concentrations of bacterial liquid were taken and mixed with equivalent 10% gastric mucin. Bacterial liquid was administrated to mice at 0.5 ml/20 g by intraperitoneal injection, and 5% gastric mucin was used as control. Under a premise of no control mice death, the death rate of mice within 14 days was recorded, and the minimum bacterial volumes leading to death of whole mice were measured, i.e. the minimum lethal dose (MLD) of bacterial liquid.
# Pretesting of effective dose in vivo: Infection model mice infected by Methicillin-resistant Staphylococcus aureus were randomly divided into a few of groups (four mice per group), and a graded dose of each bacterial liquid was separately administrated to mice in each test group at one time per day. Moreover, administration of test drug was done one day ahead of schedule, and toxic substances were not eliminated until 0.5 h after administration on the second day. The death status of mice within 14 days was observed, to determine the dosage used in the formal experiment.
# KM mice (grade SPF), half male and half female, weighing 18-22 g were randomly divided into […] groups with ten mice for each group, i.e. the group receiving vancomycin hydrochloride for injection; the groups receiving high, medium, and low doses of patchoulol; blank group; model group; and control group receiving gastric mucin. All of the mice were administrated by intraperitoneal injection once a day. The mice were administrated one day in advance and then attacked after 0.5h of administration on the second day, i.e. intraperitoneally injected with methicillin-resistant Staphylococcus aureus liquid containing 5% gastric mucin. Amongst, mice in the model group were given normal saline instead of test drug; mice in the blank group were not given drugs and attacked; mice in the gastric mucin control group were not given test drug, but only injected with 5% gastric mucin without bacteria.
# The death status of mice within 14 days after injection of bacteria was observed, and its survival rate was recorded.
# [4] = tested on: influenza virus A/PR/8/34 (H1N1); settings: in vitro; cited from earlier work
# vomit response = settings: chickens, 50-70 mg/kg; cited from earlier work
smiles,measurement,setting,value
"C[C@H]1CC[C@@]2(O)C(C)(C)[C@@H]3CC[C@@]2(C)[C@H]1C3 (stereo in doubt) [PC, (1R,4S,4aS,6R,8aS)-octahydro-4,8a,9,9-tetramethyl-1,6-methanonaphthalen-1(2H)-ol]",MIC,Streptococcus bovis,50 µg/mL
same,MIC,Staphylococcus wameri,50 µg/mL
same,MIC,"[1]; Staphylococcus auricularis (first line, r19)",25 µg/mL
same,MIC,"[1]; Staphylococcus auricularis (second line, r20)",50 µg/mL
same,MIC,[2]; Staphylococcus aureus MSSA 10-38,1.5 µg/mL
same,MIC,[2]; Staphylococcus aureus MSSA 10-40,1.5 µg/mL
same,MIC,[2]; Staphylococcus aureus MSSA 10-41,1.5 µg/mL
same,MIC,[2]; Staphylococcus aureus MSSA 12-11,128 µg/mL
same,MIC,[2]; Staphylococcus aureus MSSA 12-13,128 µg/mL
same,MIC,[2]; Staphylococcus aureus MSSA 12-14,64 µg/mL
same,MIC,[2]; Staphylococcus aureus MSSA 12-15,128 µg/mL
same,MIC,[2]; Staphylococcus aureus MSSA 12-16,64 µg/mL
same,MIC,[2]; Staphylococcus aureus MSSA 12-17,64 µg/mL
same,MIC,[2]; Staphylococcus aureus MSSA 12-18,128 µg/mL
same,MIC,[2]; Staphylococcus aureus MSSA 12-19,128 µg/mL
same,MIC,[2]; Staphylococcus aureus MSSA 12-20,64 µg/mL
same,MIC,[2]; Staphylococcus aureus MSSA 12-21,64 µg/mL
same,Survival number,[3]; High dose 200 mg/kg,10
same,Survial rate (%),[3]; High dose 200 mg/kg,100%
same,Survival number,[3]; Low dose 50 mg/kg,8
same,Survial rate (%),[3]; Low dose 50 mg/kg,80%
same,Survival number,[3]; Medium dose 100 mg/kg,10
same,Survial rate (%),[3]; Medium dose 100 mg/kg,100%
same,IC50,[4],~2.64 µM
same,vomit response induced by CuSO4,vomit response,obviously inhibit
